Measurements as given in ChEMBL document CHEMBL1201862, “PubChem BioAssay data set” (2004).
Calls of active or inactive are those of the source.

Tests used:
Genome polyprotein = Genome polyprotein (dengue virus type 2, UniProt P29990); assay: flavivirus cap methylation enzyme inhibition – biochemical, confirmation dose response, primary screen (AID 588689); type: functional
Vero = assay: viability of Vero cells under compound – cytotoxicity control for flavivirus capping enzyme inhibitors (AID 588742); type: functional; conditions: Chlorocebus sabaeus
Cysteine protease ATG4B = target: T1, Cysteine protease ATG4B (Homo sapiens, UniProt Q9Y4P1); type: functional;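 note: Fluorescence-based dose-response confirmation assay measuring inhibition of ATG4B activity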
T1 sequence (Q9Y4P1 whole entry): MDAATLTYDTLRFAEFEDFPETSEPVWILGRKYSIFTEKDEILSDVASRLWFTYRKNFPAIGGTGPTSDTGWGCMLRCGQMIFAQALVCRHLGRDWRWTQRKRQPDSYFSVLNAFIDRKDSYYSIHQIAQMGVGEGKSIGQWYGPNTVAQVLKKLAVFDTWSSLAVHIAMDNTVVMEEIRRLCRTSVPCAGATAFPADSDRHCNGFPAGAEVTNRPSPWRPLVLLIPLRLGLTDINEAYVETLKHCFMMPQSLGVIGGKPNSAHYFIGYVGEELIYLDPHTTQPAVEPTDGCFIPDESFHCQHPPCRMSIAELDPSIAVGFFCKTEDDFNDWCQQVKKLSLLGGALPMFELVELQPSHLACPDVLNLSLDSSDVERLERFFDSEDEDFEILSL

Phospholipase A2 = Phospholipase A2 (Homo sapiens, UniProt P04054); type: functional;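 note: confirmatory dose-response counterscreen on phospholipase A2, testing hits that came from an ultra-high-throughput screen for ATG4B inhibitors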
Phospholipase A2, sequence (P04054 whole entry): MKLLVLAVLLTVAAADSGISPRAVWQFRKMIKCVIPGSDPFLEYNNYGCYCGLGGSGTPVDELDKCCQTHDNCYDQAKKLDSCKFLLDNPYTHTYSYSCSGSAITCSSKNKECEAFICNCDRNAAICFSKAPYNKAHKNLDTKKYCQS

Protein RecA = target: T2, Protein RecA (Mycobacterium tuberculosis, UniProt P9WHJ3); assay: Fluorescence Cell-Free Homogeneous Dose Retest to Identify Inhibitors of RecA-Intein Splicing Activity. [Related pubchem assays (depositor defined):AID2097, AID2223, AID489010, AID492950]; type: functional
T2 sequence (P9WHJ3 whole entry): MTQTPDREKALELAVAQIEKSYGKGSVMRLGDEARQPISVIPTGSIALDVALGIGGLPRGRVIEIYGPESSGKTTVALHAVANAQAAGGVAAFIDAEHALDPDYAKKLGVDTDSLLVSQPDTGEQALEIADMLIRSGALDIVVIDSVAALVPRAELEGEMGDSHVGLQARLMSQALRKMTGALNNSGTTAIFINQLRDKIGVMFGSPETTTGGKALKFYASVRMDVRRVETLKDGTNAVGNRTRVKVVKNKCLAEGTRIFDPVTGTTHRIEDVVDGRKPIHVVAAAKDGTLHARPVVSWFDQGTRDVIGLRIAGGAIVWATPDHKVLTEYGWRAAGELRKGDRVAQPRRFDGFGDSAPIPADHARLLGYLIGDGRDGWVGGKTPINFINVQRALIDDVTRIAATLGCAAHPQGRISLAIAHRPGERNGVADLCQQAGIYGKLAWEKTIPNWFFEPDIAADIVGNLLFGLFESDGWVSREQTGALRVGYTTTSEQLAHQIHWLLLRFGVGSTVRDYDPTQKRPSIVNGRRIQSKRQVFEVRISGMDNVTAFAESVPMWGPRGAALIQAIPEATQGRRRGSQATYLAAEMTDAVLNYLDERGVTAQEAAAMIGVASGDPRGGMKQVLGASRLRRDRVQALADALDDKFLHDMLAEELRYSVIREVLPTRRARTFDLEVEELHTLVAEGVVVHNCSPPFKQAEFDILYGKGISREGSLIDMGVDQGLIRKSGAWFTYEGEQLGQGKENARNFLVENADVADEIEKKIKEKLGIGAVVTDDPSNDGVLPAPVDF

[1] = target: T3, Replicative DNA helicase DnaB (Mycobacterium tuberculosis, UniProt P9WMR3); assay: DnaB intein splicing inhibitors, dose response, biochemical, cell-free fluorescence (AID 449749); type: functional
T3 sequence (P9WMR3 whole entry): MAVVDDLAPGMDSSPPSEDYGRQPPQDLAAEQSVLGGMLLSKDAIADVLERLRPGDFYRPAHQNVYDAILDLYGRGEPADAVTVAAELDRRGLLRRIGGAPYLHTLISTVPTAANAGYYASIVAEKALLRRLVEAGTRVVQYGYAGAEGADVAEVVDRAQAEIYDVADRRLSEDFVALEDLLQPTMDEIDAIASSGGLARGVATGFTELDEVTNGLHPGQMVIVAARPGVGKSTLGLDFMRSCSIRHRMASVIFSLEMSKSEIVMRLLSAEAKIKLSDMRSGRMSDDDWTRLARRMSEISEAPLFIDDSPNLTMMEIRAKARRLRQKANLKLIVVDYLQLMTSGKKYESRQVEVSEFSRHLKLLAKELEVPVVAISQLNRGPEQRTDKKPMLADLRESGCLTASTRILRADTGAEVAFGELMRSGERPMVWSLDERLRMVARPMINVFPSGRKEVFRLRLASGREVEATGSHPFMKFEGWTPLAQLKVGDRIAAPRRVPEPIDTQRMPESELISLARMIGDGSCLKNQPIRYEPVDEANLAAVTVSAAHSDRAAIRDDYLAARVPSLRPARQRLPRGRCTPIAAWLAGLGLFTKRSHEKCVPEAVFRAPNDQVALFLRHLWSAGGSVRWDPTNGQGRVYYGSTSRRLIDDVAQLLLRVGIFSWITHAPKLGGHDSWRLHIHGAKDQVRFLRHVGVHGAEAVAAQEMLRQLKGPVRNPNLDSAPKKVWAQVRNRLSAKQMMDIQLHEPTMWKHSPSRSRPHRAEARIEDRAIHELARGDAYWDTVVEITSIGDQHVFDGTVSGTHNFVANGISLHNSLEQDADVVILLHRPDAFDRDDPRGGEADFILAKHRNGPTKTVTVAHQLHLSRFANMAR

Trypsin = Trypsin (Sus scrofa, UniProt P00761); assay: trypsin protease activity blockade – biochemical, quenched peptide fluorescence, cherry-pick, selectivity assay for Rce1 protease inhibitor project, dose response (AID 488789)
Trypsin, sequence (P00761 whole entry): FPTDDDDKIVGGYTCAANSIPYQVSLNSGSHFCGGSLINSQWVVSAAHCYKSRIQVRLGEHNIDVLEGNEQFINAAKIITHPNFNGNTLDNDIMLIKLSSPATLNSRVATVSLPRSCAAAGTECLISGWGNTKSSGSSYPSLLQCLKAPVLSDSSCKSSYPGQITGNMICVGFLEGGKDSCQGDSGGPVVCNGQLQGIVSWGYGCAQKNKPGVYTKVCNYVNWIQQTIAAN

CAAX prenyl protease 2 = target: T4, CAAX prenyl protease 2 (Saccharomyces cerevisiae S288c, UniProt Q03530); type: biochemical
T4 sequence (Q03530 whole entry): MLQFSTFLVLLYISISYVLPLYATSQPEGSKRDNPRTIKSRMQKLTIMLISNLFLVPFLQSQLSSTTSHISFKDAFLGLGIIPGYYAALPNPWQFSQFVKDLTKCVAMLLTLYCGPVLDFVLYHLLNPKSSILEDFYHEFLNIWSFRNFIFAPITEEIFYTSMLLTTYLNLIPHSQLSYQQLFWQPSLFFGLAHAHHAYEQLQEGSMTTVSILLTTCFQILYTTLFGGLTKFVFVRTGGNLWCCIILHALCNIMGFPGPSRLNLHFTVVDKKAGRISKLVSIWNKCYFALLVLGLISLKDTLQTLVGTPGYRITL

Genome polyprotein, sequence (P29990 2492-3391 limits assumed): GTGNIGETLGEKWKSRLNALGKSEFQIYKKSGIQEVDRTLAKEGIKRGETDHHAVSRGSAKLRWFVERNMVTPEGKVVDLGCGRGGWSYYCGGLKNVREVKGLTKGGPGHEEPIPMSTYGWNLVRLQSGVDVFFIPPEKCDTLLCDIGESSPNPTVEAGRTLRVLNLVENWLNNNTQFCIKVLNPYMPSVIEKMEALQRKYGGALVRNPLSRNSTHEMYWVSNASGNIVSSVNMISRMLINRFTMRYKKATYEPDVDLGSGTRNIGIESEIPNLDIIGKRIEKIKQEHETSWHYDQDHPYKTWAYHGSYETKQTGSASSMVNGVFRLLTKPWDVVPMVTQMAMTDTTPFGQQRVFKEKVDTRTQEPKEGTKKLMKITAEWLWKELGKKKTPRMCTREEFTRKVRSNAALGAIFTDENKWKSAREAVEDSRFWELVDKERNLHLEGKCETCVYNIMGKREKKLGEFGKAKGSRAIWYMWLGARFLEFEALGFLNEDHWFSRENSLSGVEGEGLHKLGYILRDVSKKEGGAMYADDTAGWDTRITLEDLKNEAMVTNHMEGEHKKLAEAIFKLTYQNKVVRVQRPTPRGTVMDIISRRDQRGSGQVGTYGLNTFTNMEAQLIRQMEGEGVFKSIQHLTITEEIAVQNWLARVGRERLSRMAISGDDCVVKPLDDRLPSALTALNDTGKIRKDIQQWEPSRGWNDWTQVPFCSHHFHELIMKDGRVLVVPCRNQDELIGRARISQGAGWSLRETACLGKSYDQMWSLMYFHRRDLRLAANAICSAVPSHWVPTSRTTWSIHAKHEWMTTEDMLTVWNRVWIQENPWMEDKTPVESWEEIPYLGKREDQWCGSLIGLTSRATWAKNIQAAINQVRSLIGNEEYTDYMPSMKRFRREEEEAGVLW

Row | SMILES | IC50 (Genome polyprotein) | CC50 (Vero) | IC50 (Cysteine protease ATG4B) | IC50 (Phospholipase A2) | further results
1 | O=C(O)c1cccc(CN2C(=O)S/C(=C/c3cccc([N+](=O)[O-])c3)C2=O)c1 | 83.2 µM (active) | > 40 µM (active) |  |  | 
2 | CC(C)(C)c1ccccc1/N=C/c1ccc2ccccc2n1 |  |  | 14.2 µM (active) | 16.2 µM (active) | 
3 | Cc1nn(Cc2ccccc2)c2c1C(c1cccc(Cl)c1)C(C#N)=C(N)O2 (configuration not stated) | > 100 µM (active) | > 40 µM (active) |  |  | EC50 (Protein RecA): 3.26 µM (active); AC50 [1]: 5.7 µM (active)
4 | Nc1nn(-c2ccccc2)c(N)c1N=Nc1ccccc1 |  |  | 11.9 µM (active) | 9 µM (active) | 
5 | O=C1CSC(c2cn(-c3ccccc3)nc2-c2cc3ccccc3oc2=O)N1Cc1ccco1 (configuration not stated) |  |  |  |  | AC50 (Trypsin): 9.09 µM (active); AC50 (CAAX prenyl protease 2): 30.8 µM (active)
